Assay results published in ChEMBL document CHEMBL5346903, “Discovery of novel and bioavailable histone deacetylases and cyclin-dependent kinases dual inhibitor to impair the stemness of leukemia cells” (Eur J Med Chem, 2023).

How the values were obtained:
HL-60 [1] = test: Induction of apoptosis in human HL-60 cells assessed as viable cells at 2.5 uM incubated for 48 hrs by annexin V-FITC/PI satining based flow cytometry (reference value: 94.7 %); type: functional; conditions: read-out: Activity
Kasumi 1 = test: Cytotoxicity against human Kasumi 1 cells assessed as CD34positive CD38negative leukemic stem cell-like cells sub-population at 0.5 uM incubated for 24 hrs by APC/FITC satining based flow cytometry (reference value: 95.8 %); type: functional
Histone deacetylase 9 = Histone deacetylase 9 (Homo sapiens, UniProt Q9UKV0); test: Inhibition of recombinant human HDAC9 using HDAC substrate incubated for 30 mins by fluorescence based assay
HL-60 [2] = test: Induction of apoptosis in human HL-60 cells assessed as viable cells at 1 uM incubated for 48 hrs by annexin V-FITC/PI satining based flow cytometry (reference value: 97.4 %); type: functional; conditions: read-out: Activity
HL-60 [3] = test: Induction of apoptosis in human HL-60 cells assessed as early apoptotic cells at 0.2 uM incubated for 48 hrs by annexin V-FITC/PI satining based flow cytometry (reference value: 1.24 %); type: functional
HL-60 [4] = test: Induction of apoptosis in human HL-60 cells assessed as late apoptotic cells at 1 uM incubated for 48 hrs by annexin V-FITC/PI satining based flow cytometry (reference value: 1.33 %); type: functional
U-937 = test: Induction of apoptosis in human U-937 cells assessed as necrotic cells at 2 uM incubated for 48 hrs by annexin V-FITC/PI satining based flow cytometry (reference value: 1.96 %); type: functional
[5] = AUC in Sprague-Dawley rat at 25 mg/kg, po measured upto 8 hrs by LC/MS-MS analysis; type: ADME, organism-based; set-up: time < 8 hrs, dose 25 mg/kg, route po; conditions: in vivo

Histone deacetylase 9, sequence (Q9UKV0 whole entry): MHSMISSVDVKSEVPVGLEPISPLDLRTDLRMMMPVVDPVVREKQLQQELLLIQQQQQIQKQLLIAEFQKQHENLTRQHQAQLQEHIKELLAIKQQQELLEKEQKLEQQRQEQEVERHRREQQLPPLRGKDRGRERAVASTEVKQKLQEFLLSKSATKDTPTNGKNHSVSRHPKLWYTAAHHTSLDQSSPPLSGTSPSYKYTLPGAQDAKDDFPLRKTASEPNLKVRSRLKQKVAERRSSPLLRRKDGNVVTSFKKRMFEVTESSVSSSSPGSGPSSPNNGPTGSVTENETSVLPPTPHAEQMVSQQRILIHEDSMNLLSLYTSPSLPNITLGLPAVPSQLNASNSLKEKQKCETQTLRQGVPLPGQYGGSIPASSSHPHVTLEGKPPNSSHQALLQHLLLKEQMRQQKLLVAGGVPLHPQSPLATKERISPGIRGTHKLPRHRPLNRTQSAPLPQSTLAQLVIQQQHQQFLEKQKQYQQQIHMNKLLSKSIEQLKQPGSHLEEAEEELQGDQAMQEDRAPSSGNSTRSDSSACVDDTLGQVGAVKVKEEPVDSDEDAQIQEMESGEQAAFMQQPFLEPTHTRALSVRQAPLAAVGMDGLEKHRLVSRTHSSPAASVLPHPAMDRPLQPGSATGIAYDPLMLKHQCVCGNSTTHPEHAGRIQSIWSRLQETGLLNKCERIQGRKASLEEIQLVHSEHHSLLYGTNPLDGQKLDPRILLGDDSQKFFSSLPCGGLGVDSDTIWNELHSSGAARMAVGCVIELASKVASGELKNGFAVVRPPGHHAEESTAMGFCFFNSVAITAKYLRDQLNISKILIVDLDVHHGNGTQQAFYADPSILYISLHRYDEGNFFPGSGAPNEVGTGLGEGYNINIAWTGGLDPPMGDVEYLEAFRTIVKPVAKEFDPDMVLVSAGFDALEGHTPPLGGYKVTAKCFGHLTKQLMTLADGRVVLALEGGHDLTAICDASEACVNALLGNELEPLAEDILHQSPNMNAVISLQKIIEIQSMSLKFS

| Structure (SMILES) | viability at 2.5 µM (HL-60 [1]) | Activity (Kasumi 1) | IC50 (Histone deacetylase 9) | viability at 1 µM (HL-60 [2]) | Activity (HL-60 [3]) | Activity (HL-60 [4]) | Activity (U-937) | AUC [5] |
| --- | --- | --- | --- | --- | --- | --- | --- | --- |
| Nc1cc(F)ccc1NC(=O)c1ccc(CNC(=O)/C=C/c2cccnc2)cc1 [TUCIDINOSTAT] | 56.1% | 93.9% | – | – | – | – | – | – |
| Nc1ccccc1NC(=O)c1ccc(NC(=O)c2n[nH]cc2NC(=O)c2c(Cl)cccc2Cl)cc1 | – | – | > 1 µM | 43.5% | 1.61% | 39% | 3.3% | 2368 ng·h/mL |
